These are literature values, as cited in patent US20240173254A1, “TASIPIMIDINE FORMULATIONS AND USE THEREOF” (ORION CORPORATION, priority 2021, published 2024).

The structures appear in SMILES notation.

For series [1] the following is noted: in vivo.

With `COc1cccc2c1CCOC2C1=NCCN1` (centres unmarked) [tasipimidine, 2-(5-methoxyisochroman-1-yl)-4,5-dihydro-1H-imidazole], in series [1], the “elimination half-life (t1/2) compared with clonidine” value is “shorter elimination half-life (t1/2) than clonidine”. The “relieving situational anxiety and fear triggered by noise or owner departure” value with dogs was “effective”.
